US20030032579A1, “Therapeutic use of selective PDE10 inhibitors” (Pfizer Inc., priority 2001, published 2003)
pIC50: −log10 of the molar value. Where “and” joins values, the source holds several entries; their conditions need not be identical. Equal values may be shown once.

What was measured:
[1] = system: primary cultures of rat striatal neurons (medium spiny neurons); assay: cGMP accumulation in SNP-stimulated striatal cultures (Example 2); assay type: cell-based; details: for cGMP EC200: SNP-stimulated rat striatal cultures, mean ± S.E.M.
Protocol: (§1) The striatal cultures were prepared as previously described (Ventimiglia et al., Eur. J. Neurosci. 7: 213-222, 1995). Briefly, striata (caudate nucleus and putamen) are dissected from E17 rats, were dissociated to produce a single cell suspension and plated at a density of 5×10^4 neurons/well in multiwell plates coated with poly-L-ornithine/laminin. The cells were plated in Neurobasal medium with B27 supplements and BDNF (100 ng/mL). Experiments were typically performed after 4 days in vitro. Medium spiny neurons comprise the majority of cells in these cultures (50 to 60%, as confirmed by GABA immunoreactivity).
(§2) The striatal cells were exposed to phosphodiesterase inhibitors and incubated for twenty minutes at 37 degrees Celsius. When measuring cGMP, the neurons were stimulated with sodium nitroprusside, a nitric oxide source for two minutes following the 20-minute incubation with compound. When measuring cAMP, the neurons were stimulated with forskolin, an activator of adenylate cyclase for the duration of the twenty minute compound incubation. The cells were lysed using a 9:1 combination of cAMP SPA direct screening Assay Buffer (0.05M acetate with 0.01% sodium azide) and Buffer A (133 mg/mL dodecyltrimethylammonium bromide) and the lysates were frozen on dry ice. A cGMP [[…]] or cAMP [[…]] scintillation proximity assay (SPA) system (Amersham code RPA 540 and RPA 559, respectively) was used to detect the concentration of the respective cyclic nucleotide in the cell lysate.
(§3) We therefore examined the effects of the compound under conditions in which cAMP or cGMP synthesis was stimulated with forskolin or the NO donor sodium nitroprusside (SNP), respectively.

[2] = system: primary cultures of rat striatal neurons (medium spiny neurons); assay: cAMP accumulation in forskolin-stimulated striatal cultures (Example 2); assay type: cell-based; details: for cAMP EC200: forskolin-stimulated rat striatal cultures, mean ± S.E.M.; for cAMP/cGMP (ratio of EC200 values): rat striatal cultures, Example 2
Protocol: as §1, §2, §3

medium spiny neurons [3] = assay: cGMP accumulation in SNAP-stimulated medium spiny neuron culture (Example 5); assay type: cell-based, rat
Protocol: (§4) Medium spiny neuron cultures were prepared as discussed in Example 2 from striata from E17 or E18 rat embryos. The striata were digested with trypsin and the dissociated cells plated on poly-L-omithine/laminin coated plates in Neurobasal medium containing B27 supplement. For assays of cyclic nucleotide formation and CREB phosphorylation, neurons are also supplemented with 50 ng/ml BDNF and used at 6 DIV. At this time, approximately 90% of the cells are of neuronal morphology and 50% stain positively for GABA.
(§5) The PDE inhibitors were differentiated by the potencies with which they potentiated the increase in cAMP versus cGMP (Table 3).

medium spiny neurons [4] = assay: cAMP accumulation in forskolin-stimulated medium spiny neuron culture (Example 5); assay type: cell-based, rat
Protocol: as §4, §5

medium spiny neurons [5] = assay: CREB phosphorylation in medium spiny neurons, Western blot; assay type: cell-based, rat; details: Western blotting
Protocol: as §4
cAMP and cGMP activate protein kinases PKA and PKG, respectively. Both kinases are capable of phosphorylating the transcription regulator CREB. We examined the effects of the selective PDE inhibitors in Table 3 on phosphorylation of CREB as a downstream event in the cyclic nucleotide signaling cascade.

medium spiny neurons [6] = assay: Differentiation of medium spiny neurons to GABA phenotype, Array Scan; assay type: cell-based, rat; details: added at plating, read at 6 DIV
Protocol: The transcriptional events activated following CREB phosphorylation are involved in the survival and differentiation of neurons. We investigated whether the PDE inhibitors in Table 3 effect the survival and differentiation of the medium spiny neurons. These experiments were conducted using a protocol used by Ventimiglia et al. (see Ventimiglia et al., 1995, supra) to assay the effects of BDNF on these processes in medium spiny neurons. Specifically, the PDE inhibitors were added to the medium spiny neuron culture medium at the time of plating, and then at 6 DIV various parameters related to neuronal survival and differentiation were quantified using the Array Scan System from Cellomics, Inc (Pittsburgh, Pa., USA).
Blue-nuclei; Green-neuron; Red-neuron staining positively for GABA.

male CD rats = assay: Catalepsy (bar test), alone and with haloperidol; assay type: in vivo, rat; details: s.c.; for catalepsy when administered alone: 30 min after dosing, papaverine up to 32 mg/kg
Excerpt: This animal model is used to analyze the effects of compounds on basal ganglia output. […] For some experiments, this was immediately followed by haloperidol. Thirty minutes after drug administration(s), the degree of catalepsy was quantified by placing the animals forepaws on an elevated (10 cm) bar (1 cm diameter) and determining the latency to remove both forepaws from the bar with a latency cutoff of 30 sec. Latencies were ranked within each treatment group for comparison by a Kruskall-Wallace analysis of variance. Post hoc analysis was by the Mann Whitney U test.

PDE10 = biological target: T1, PDE10 (Rattus norvegicus, UniProt Q9QYJ6); assay: PDE inhibition, SPA cyclic nucleotide hydrolysis assay; assay type: biochemical
T1 construct: made in house; host or cells: SF9 cells
T1 sequence (Q9QYJ6 1-794): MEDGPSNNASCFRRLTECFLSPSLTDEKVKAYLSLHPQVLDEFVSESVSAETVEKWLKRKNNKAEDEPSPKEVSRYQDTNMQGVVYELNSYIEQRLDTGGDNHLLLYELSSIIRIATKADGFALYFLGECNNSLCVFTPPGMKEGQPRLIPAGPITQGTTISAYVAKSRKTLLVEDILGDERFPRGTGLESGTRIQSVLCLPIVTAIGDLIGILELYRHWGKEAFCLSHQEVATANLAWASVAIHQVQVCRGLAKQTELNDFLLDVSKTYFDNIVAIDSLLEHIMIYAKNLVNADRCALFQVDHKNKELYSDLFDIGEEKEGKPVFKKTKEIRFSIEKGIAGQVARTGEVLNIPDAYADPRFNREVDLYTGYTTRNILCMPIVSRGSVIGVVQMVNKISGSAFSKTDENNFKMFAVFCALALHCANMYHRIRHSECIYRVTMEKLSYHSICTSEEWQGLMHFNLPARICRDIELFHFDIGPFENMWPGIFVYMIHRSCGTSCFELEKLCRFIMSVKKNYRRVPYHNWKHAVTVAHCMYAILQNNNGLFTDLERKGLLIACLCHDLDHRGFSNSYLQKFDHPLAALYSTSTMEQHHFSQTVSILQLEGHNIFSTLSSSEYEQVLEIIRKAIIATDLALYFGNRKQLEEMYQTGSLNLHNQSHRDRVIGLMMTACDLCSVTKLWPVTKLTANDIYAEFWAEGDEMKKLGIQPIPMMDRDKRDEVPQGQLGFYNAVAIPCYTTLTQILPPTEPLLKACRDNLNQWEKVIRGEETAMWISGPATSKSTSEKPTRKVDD

PDE1 = system: T2, PDE1; assay: as above; assay type: biochemical, human; details: substrate at 1/3 Km
T2 construct: other: substrate at 1/3 Km
Excerpt: (§6) PDEs 2, 3 and 5, isozymes, including human PDEs, can, for example, be prepared from corpus cavernosum; PDE1, isozymes including human, from cardiac ventricle; and PDE4, isozymes, including human, from skeletal muscle. PDE6 can be prepared, for example, from canine retina. Description of enzyme preparation from native tissue is described, for example, by Boolell, M. et al., Int. J. Impotence Research 8:7-52, 1996, incorporated herein by reference.
(§7) PDEs 7-11 can similarly be prepared from native tissue. Isozymes from the PDEs 7-9 and 11 families can alternatively be generated from full length human recombinant clones transfected into, for example, SF9 cells as described in Fisher, D. A., et al., Biochem. Biophys. Res. Comm. 246, 570-577, 1998; Soderling, S. H. et al., PNAS 96: 7071-7076, 1999; Fisher, D. A. et al., J. Biol. Chem. 273, 15559-15564, 1998b; and Fawcett, L., et al., PNAS 97: 3702-3707, 2000; respectively. PDE10 can also be generated from a rat recombinant clone transfected into SF9 cells (Fujishige et al., European Journal of Biochemistry, Vol. 266, 1118-1127 (1999)). The enzymes are then prepared by FPLC from the soluble fraction of cell lysates as described for PDE6. The aforementioned references are incorporated in their entireties herein by reference. […]

PDE7 = system: T3, PDE7; assay: as above; assay type: biochemical, human; details: substrate at 1/3 Km
T3 construct: other: substrate at 1/3 Km
Excerpt: as §6, §7

PDE9 = biological target: T4, PDE9 (Homo sapiens, UniProt O76083); assay: as above; assay type: biochemical
T4 construct: made in house; host or cells: SF9 cells
T4 sequence (O76083 whole entry): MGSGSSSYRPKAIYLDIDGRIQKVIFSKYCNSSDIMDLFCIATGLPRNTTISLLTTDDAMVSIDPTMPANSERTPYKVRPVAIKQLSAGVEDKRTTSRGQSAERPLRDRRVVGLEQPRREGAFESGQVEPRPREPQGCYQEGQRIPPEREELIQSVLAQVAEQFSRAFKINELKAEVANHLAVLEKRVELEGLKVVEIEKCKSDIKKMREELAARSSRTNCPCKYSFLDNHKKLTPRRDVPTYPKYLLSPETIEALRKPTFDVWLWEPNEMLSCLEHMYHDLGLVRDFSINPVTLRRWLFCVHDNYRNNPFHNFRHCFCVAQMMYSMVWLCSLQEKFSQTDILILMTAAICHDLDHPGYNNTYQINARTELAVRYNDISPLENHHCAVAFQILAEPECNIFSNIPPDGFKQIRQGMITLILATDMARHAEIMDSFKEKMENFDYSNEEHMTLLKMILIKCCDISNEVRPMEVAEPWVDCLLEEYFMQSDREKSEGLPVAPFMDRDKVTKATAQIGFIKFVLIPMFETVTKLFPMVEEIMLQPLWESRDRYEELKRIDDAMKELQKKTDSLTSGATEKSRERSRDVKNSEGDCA
Protocol: (§8) In one assay, a substance is screened for inhibition of cyclic nucleotide hydrolysis by the PDE10 and the PDEs from the other gene families. The cyclic nucleotide substrate concentration used in the assay of each individual PDE is ⅓ of the Km concentration, allowing for comparisons of IC50 values across the different enzymes. PDE activity is measured using a Scintillation Proximity Assay (SPA)-based method as previously described (Fawcett et al., 2000). The effect of PDE inhibitors is determined by assaying a fixed amount of enzyme (PDEs 1-11) in the presence of varying substance concentrations and low substrate, such that the IC50 approximates the Ki (cGMP or cAMP in a 3:1 ratio unlabelled to [^3H]-labeled at a concentration of ⅓ Km). The final assay volume is made up to 100 μl with assay buffer [20 mM Tris-HCI pH 7.4, 5 mM MgCl2, 1 mg/ml bovine serum albumin]. […] Plates are re-sealed and shaken for 20 min, after which the beads were allowed to settle for 30 min in the dark and then counted on a TopCount plate reader (Packard, Meriden, Conn.). […]
(§9) PDE activity was measured using the assay with yttrium silicate SPA beads described above in the Detailed Description section.

PDE11 = biological target: T5, PDE11 (Homo sapiens, UniProt Q9HCR9); assay: as above; assay type: biochemical
T5 construct: made in house; host or cells: SF9 cells
T5 sequence (Q9HCR9 445-933): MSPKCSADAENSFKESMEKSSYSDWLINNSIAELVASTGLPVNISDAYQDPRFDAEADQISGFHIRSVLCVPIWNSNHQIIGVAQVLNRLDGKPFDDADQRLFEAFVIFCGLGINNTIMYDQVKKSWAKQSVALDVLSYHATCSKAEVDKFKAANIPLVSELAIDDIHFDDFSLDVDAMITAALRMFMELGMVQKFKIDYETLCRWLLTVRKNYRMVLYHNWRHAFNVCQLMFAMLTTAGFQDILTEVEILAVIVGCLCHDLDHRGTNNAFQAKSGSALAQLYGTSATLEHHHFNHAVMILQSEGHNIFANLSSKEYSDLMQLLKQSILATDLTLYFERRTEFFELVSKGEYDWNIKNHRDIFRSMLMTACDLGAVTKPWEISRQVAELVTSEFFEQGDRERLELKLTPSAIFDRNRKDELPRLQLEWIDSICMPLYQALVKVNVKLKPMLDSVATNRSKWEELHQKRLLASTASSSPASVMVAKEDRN
Protocol: as §8, §9

Sprague-Dawley rats = assay: Locomotor activity (shuttle box crossovers), PCP- or amphetamine-stimulated; assay type: in vivo, rat
Protocol: Adult, male, Sprague-Dawley rats (250-300 g) were obtained from Charles River (Wilmington, Mass.). Locomotor activity was assessed using crossover behavior in commercially available shuttle boxes (Coulbourn Instruments, Allentown, Pa.). Data was collected in 5 minute intervals for 1 hour after drug administration. Animals received either vehicle (5% DMSO, 5% Emulphor, 90% Saline) phencyclidine (PCP, Sigma Chem. Co.) or amphetamine Sulfate (RBI) followed immediately by either vehicle or test compound. Statistical analysis was performed using the Student's t-test.

[7] = system: primary cultures of rat striatal neurons (medium spiny neurons); assay: cGMP accumulation in SNP-stimulated striatal cultures (Example 2); assay type: cell-based; details: compound alone, no stimulus
[8] = system: primary cultures of rat striatal neurons (medium spiny neurons); assay: cAMP accumulation in forskolin-stimulated striatal cultures (Example 2); assay type: cell-based; details: compound alone, no stimulus

## COc1ccc(C2CNC(=O)C2)cc1OC1CCCC1 (stereo not drawn) [Rolipram]
[1]
  cGMP EC200: 29.2 ± 10.3 (3) μM
[1]; relative to cAMP EC200
  fold higher concentration to double cGMP accumulation than cAMP: 10 fold
[2]
  cAMP EC200: 2.5 ± 2.0 (3) μM
  cAMP/cGMP (ratio of EC200 values): 0.09
[2]; listed as rolipram
  cAMP EC200: 2.5 µM
Medium spiny neurons [3]; FIG. 4
  effect on accumulation of cGMP stimulated with SNAP: potentiate the increase
Medium spiny neurons [3]; SNAP-stimulated medium spiny neurons, 6 DIV
  cGMP EC200: 71.1 ± 9.9 µM
Medium spiny neurons [3]; no stimulus
  change in cGMP level in the absence of a stimulus: no detectable change
Medium spiny neurons [4]; FIG. 3
  effect on accumulation of cAMP stimulated with forskolin: potentiate the increase
Medium spiny neurons [4]; forskolin-stimulated medium spiny neurons, 6 DIV
  cAMP EC200: 2.0 ± 0.2 µM
Medium spiny neurons [4]; medium spiny neurons, Example 5
  cAMP/cGMP (ratio of EC200 values): 0.03
Medium spiny neurons [4]; no stimulus
  change in cAMP level in the absence of a stimulus: no detectable change
Medium spiny neurons [5]
  rank order of efficacy in increasing CREB phosphorylation: forskolin>selective PDE 10 inhibitor>rolipram
Medium spiny neurons [5]; compound without other stimuli
  CREB phosphorylation: increased CREB phosphorylation
Medium spiny neurons [6]
  number of GABAergic neurons: no effect

## CC(C)Cn1c(=O)n(C)c(=O)c2[nH]cnc21 [IBMX]
[1]
  cGMP EC200: 19 μM and 19.5 (1) μM
[2]
  cAMP EC200: 30 μM and 30.2 (2) μM
  cAMP/cGMP (ratio of EC200 values): 1.5

## O=C(CCCN1CCC(O)(c2ccc(Cl)cc2)CC1)c1ccc(F)cc1 [haloperidol]
Male CD rats
  maximally effective dose for catalepsy: 1 mg/kg
  catalepsy when administered alone: robust catalepsy

## COc1ccc(Cc2nccc3cc(OC)c(OC)cc23)cc1OC [Papaverine, 1-[(3,4-dimethoxyphenyl)methyl]-6,7-dimethoxyisoquinoline]
PDE10
  pIC50: 7.74
PDE1
  pIC50: 4.43
PDE7
  pIC50: 4.57
PDE9
  pIC50: 3.40
PDE11
  pIC50: 4.96
[1]
  cGMP EC200: 11.7 μM and 11.7 ± 8.2 (4) μM
[1]; at 100 μM
  maximal elevation of cGMP over cultures stimulated with SNP alone: 5 fold
[2]
  cAMP EC200: 38.3 ± 11.4 (4) μM
Male CD rats
  catalepsy when administered alone: did not alone induce catalepsy
Male CD rats; haloperidol […]
  minimum effective dose for potentiation of haloperidol-induced catalepsy: 3.2 mg/kg
Sprague-Dawley rats; 32 mg/kg, i.p., 60 min
  locomotor activity, compound alone: small decrease in locomotor activity
Sprague-Dawley rats; amphetamine 1 mg/kg s.c., 30 minutes
  amphetamine stimulated locomotion, second experiment: effectively inhibited
Sprague-Dawley rats; papaverine 32 mg/kg i.p., PCP […] i.p., 60 min
  locomotor activity stimulated by phencyclidine: significant reduction in the locomotor activity
Sprague-Dawley rats; papaverine 32 mg/kg i.p., amphetamine 1 mg/kg i.p., 60 min
  locomotor activity stimulated by amphetamine: without effecting
[7]
  change in basal level of cGMP: did not produce measurable changes
[8]
  change in basal level of cAMP: did not produce measurable changes

## CCCOc1ccccc1-c1nc2nn[nH]c2c(=O)[nH]1 [Zaprinast]
[1]
  cGMP EC200: 98.3 ± 10.3 (3) μM
[2]
  cAMP EC200: >100 (3) μM
  cAMP/cGMP (ratio of EC200 values): 1
